Data on 3 compounds can be found in patent publication US20110207814A1, “Combination Therapy for Breast Cancer Treatment” (priority 2009, published 2011).

Entries after “also recorded” stand apart in the source; their conditions may differ.

For series [1], the system named is MDA-MB-231. In words: Tumor volume of subcutaneous MDA-MB-231 (with or without MSCs) in nude BALB/c mice. It is filed as in vivo. The protocol: To validate our in vitro studies, female nude BALB/c mice were injected subreast cancerutaneously with 10^6 matrigel-resuspended MDA-MB-231 alone or in combination with 10^6 MSCs, as per the experimental design described in FIG. 7A. Mice were divided into the following experimental groups (n=5 per group): (A) breast cancer cells injected alone; (B) breast cancer cells injected in combination with MSCs; (C) group B plus AMD3100 treatment; (D) group C plus IL-1ra co-treatment. All groups were treated with carboplatin at days 8 and 10 following initial injection of cells, and the animals euthanized at the experimental endpoint of day 12 (D12).
Female nude BALB/c mice (4 weeks) were obtained from Harlan Laboratories (Indianapolis, Ind.) and housed in a laminar flow hood at an AALAC-accredited facility. The use of mice was approved by the Institutional Animal Care and Use Committee, New Jersey Medical School (Newark, N.J.). MDA-MB-231 (10^6), alone or in combination with MSCs (10^6), in 0.1 mL and equal volume of BD Matrigel (BD Biosciences, Bedford, Mass.) were injected by subreast cancerutaneous route in the nude mice (Day 0, D0). After 4 days, the tumors were injected with AMD3100 alone or in combination with IL-1ra or vehicle (hereafter termed ‘treatment’). Mice were given a second ‘treatment’ at D8 along with a first dose of chemotherapy delivered intra-peritoneally. A second dose of chemotherapy was given at D10 and the mice euthanized at D12.
In FIG. 7, the effects of AMD3100 and carboplatin on tumor volume are represented. The method by which mice were treated is shown in (A). (B) Female BALB/c (n=5) were injected subreast cancerutaneously with matrigel and 10^6 MDA-MB-231 alone or in combination with 10^6 MSCs. The mean volumes at the first injection (day 8, D8) are normalized to 100% and the change in volumes at D10 and D12 are presented as mean±SD.

Series [2] deals with MDA-MB-231. Here is the method: (§1) Cultures of breast cancer cells and MSCs, alone or in co-culture, from each experimental setup were assayed for cellular proliferation and viability using the CyQuant Cell Proliferation Assay Kit (Molecular Probes; Eugene, Oreg.) and CellTiter-Blue Cell Viability Assay (Promega), respectively, according to manufacturer's specific instructions.
(§2) For assessment of viability, CellTiter-Blue reagent was added to cells grown in 96-well plates, and then incubated for 4 hours at 37° C. Following incubation, wells were read using a fluorescence microplate reader at 560 nm excitation/590 nm emission. Percent viability was calculated from a reference using untreated healthy cells, which were considered 100% viable, and cell-free wells containing reagent alone, which were considered 0% viable.
(§3) Breast cancer cells, cultured alone or with MSCs for 12 days, were treated with AMD3100, or untreated. After 48 hours, all cultures were exposed to carboplatin, with re-added AMD3100 in cultures that had initial AMD3100. After 72 hours, the viable cells were counted (A and B), and presented (C and D) as the mean±SD, n=3. Whole cell extracts from these experiments were analyzed by immunoblot for caspase-3 (E). Membranes were stripped and re-probed with β-actin for normalization. Representative blots are shown, n=3.
(§4) Breast cancer cells cultured in the presence or absence of MSCs for 12 days were treated for 48 hours with AMD3100, or untreated. Following 48 hours, treated and untreated cells were exposed to carboplatin for 72 hours to induce cell death. […] At the end of this regiment cell proliferation (A and B) and viability (C and D) were assessed. The results are presented as the mean±SD, n=3.

Series [3] concerns T47D. Here is the method: as §1, §2, §3, §4
Series [4] concerns naïve breast cancer cells. In words: Transwell assay: proliferation of naïve breast cancer cells with MSCs in the inner wells. In kind it is cell-based, human. To be noted: inner wells: MSCs from co-cultures with AMD3100, compared to antagonist-treated MSCs alone; 48 hours.
Experimental: Using mechanistic studies, we next asked whether breast cancer cells proliferation by AMD3100 requires contact between MSCs and breast cancer cells. […] To address this question, we utilized a transwell assay in which “naïve” breast cancer cells, which were not previously exposed to MSCs or AMD3100, were seeded in the outer wells. MSCs from co-cultures with AMD3100 or vehicle were added to the inner wells. In parallel, only vehicle was added to the inner wells.
Breast cancer cells (5×10^4) were added to the outer well of 24-well transwell cultures, 0.4 μM insert (BD Falcon). In parallel, breast cancer cells were separated from co-cultures with MSCs by positive selection with anti-cytokeratin-conjugated; pan anti-mouse IgG Dynabeads (Invitrogen). MSCs from the negative fraction were then added to the inner wells of the transwell chamber in order to determine the effects of MSC-derived soluble factors on breast cancer cell proliferation. For neutralization of soluble IL-1α and IL-1β, anti-IL-1RI was titrated into the 24-well plates.
MSCs were co-cultured with breast cancer cells for 12 days with, or without AMD3100. The MSCs were selected and then added to the inner wells of transwell cultures. Naïve breast cancer cells were placed in the outer wells. After 48 hours, breast cancer cells were counted and the results presented as mean±SD, n=3 (A and B). […]
For a further series, the system named is IL-1β. Particulars: MDA-MB-231 transwell cultures, MSCs obtained from AMD3100-treated co-cultures, 48 hours.
For series [5], the system named is primary and metastatic breast cancer. Particulars: mice; cited from earlier work.
The test system of series [6] is T47D. Description: CyQuant proliferation of T47D, alone or in co-culture with MSCs.
For another series, the system named is breast cancer cells. To be noted: 12-day co-culture with MSCs, AMD3100 for the last 48 hours, compared to no treatment.
The next series deals with caspase-3. To be noted: breast cancer cells isolated from co-culture, carboplatin added with AMD3100.
For series [7], the system named is hematopoietic stem cells (HSCs). Particulars: potential side effect in combination with chemotherapy; cited from earlier work.
A further series deals with IL-1α. To be noted: MDA-MB-231 transwell cultures, MSCs obtained from AMD3100-treated co-cultures, 48 hours.
Series [8] deals with MDA-MB-231. The protocol:
The study of the molecular disruption of CXCL12-CXCR4 with a CXCR4 antagonist, AMD3100 was expanded. We first examined the effects of AMD3100 on the proliferation of MDA-MB-231 and T47D, in co-culture with MSCs (FIGS. 1D and 1E), in the presence of two different concentrations of the antagonist (10 and 100 ng/ml) for the 48-hour culture. Parallel cultures contained vehicle.
Some studies also looked at AMD3100 in long-term breast cancer cell/MSC co-cultures. In this set of studies we determined the effect of AMD3100 when breast cancer cells were cultured with MSCs for over 48 hours since this will recapitulate in situ when breast cancer cells are expected to contact MSCs for long periods. […] Control cultures contained vehicle (−) and 2-day exposure to AMD3100 (D2).
as §1
For determination of proliferation, cells grown in 96-well plates were frozen overnight at −70° C. The next day, thawed cells were incubated in CyQuant GR dye/cell-lysis buffer for 5 minutes at room temperature, and examined using a fluorescence microplate reader at 480 nm excitation/520 nm emission. Proliferation was calculated from a standard curve of known numbers of breast cancer cells and MSCs. To accurately assess the proliferation of breast cancer cells, but not MSC proliferation in co-culture, proliferation of MSCs grown alone were subtracted from the total cellular proliferation recorded.
The source holds these as a separate data set.

In a further series the target is CXCR7 (Homo sapiens, UniProt P25106). Particulars: cited from earlier work.
CXCR7, sequence (P25106 whole entry, species assumed): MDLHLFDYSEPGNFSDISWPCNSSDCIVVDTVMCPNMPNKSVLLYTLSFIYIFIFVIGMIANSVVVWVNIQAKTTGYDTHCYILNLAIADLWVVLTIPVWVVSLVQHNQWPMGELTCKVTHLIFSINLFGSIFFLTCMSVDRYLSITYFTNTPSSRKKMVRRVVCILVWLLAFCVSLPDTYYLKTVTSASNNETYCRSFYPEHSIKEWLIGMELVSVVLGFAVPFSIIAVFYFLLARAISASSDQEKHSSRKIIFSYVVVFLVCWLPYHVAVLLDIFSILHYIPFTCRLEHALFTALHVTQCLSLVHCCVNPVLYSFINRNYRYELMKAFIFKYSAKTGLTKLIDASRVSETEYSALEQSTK
Where [9] appears, read: MDA-MB-231 + MSCs, AMD3100 48 hours, then carboplatin 72 hours in the absence of AMD3100 (FIG. 6).
[10] abbreviates: T47D + MSCs, AMD3100 48 hours, then carboplatin 72 hours in the absence of AMD3100 (FIG. 6).

Experimental for IL-1α: (§5) To assess the factor(s) responsible for breast cancer cell proliferation (FIGS. 4A and 4B), media from representative (MDA-MB-231) transwell cultures were analyzed with a cytokine/growth factor microarray.
(§6) Cytokine production by MSCs in the transwell assay was assessed using the Human Cytokine Antibody Array 5 (RayBiotech; Norcross, Ga.). Briefly, after 48 hours of culture, the transwell was removed and the breast cancer cell growth media collected for cytokine determination. Background levels obtained with media alone were subtracted. The densities of spots were quantitated with UN-SCAN-IT densitometry software (Silk Scientific; Orem, Utah).
Experimental for IL-1β: as §5, §6
Experimental for caspase-3: Whole cell extracts from breast cancer cells and MSCs were prepared in accordance with accepted methods and 20 μg were analyzed by western blots using 4-20% SDS-PAGE (Bio-Rad, Hercules, Calif.). The proteins were transferred onto polyvinylidene difluoride membranes (Perkin Elmer Life Sciences, Boston, Mass.). Membranes were incubated overnight with primary antibodies and then detected the following day by 2 hour incubation with HRP-conjugated IgG. All primary and secondary antibodies were used at final dilutions of 1/1000 and 1/2000, respectively. HRP was developed with chemiluminscence detection reagent (Perkin Elmer Life Sciences). The membranes were stripped with Restore Stripping Buffer (Pierce, Rockford, Ill.) for reprobing with other antibodies.

Turning to “IL-1ra: IL-1 receptor antagonist used to block the activity of IL-1 in the mouse tumor model”, the “mean tumor volume by D12” value in the series with MDA-MB-231 [1] (group D: group C plus IL-1ra co-treatment, effect on the AMD3100 response) was “negated this response”.

Turning to `N.N.O=C([O-])C1(C(=O)[O-])CCC1.[Pt+2]` [carboplatin], the “response to carboplatin (viable cells / viability) in co-culture with MSCs” value in the series on MDA-MB-231 [2] (MDA-MB-231 + MSCs 12 days, carboplatin 72 hours, no AMD3100, compared to breast cancer cells alone) is reported as “chemoresistant”; with T47D [3] (T47D + MSCs 12 days, carboplatin 72 hours, no AMD3100, compared to breast cancer cells alone) it was “chemoresistant”. The “mean tumor volume by D12” value was “drastic reduction in mean tumor volume” in the series on MDA-MB-231 [1] (group A: breast cancer cells injected alone, carboplatin at days 8 and 10); “significantly (p<0.05) impeded” in the series on MDA-MB-231 [1] (group B: breast cancer cells co-injected with MSCs, carboplatin at days 8 and 10, effect on the reduction seen in group A).

As to `c1cc(CN2CCCNCCNCCCNCC2)ccc1CN1CCCNCCNCCCNCC1` [AMD3100], the “naïve breast cancer cell proliferation in transwells” value in series [4] is “significant (p<0.05) increase”. Further, the “IL-1β in transwell media, fold greater” value in the series on IL-1β amounted to 5 fold. In addition, the “cell viability with AMD3100” value with MDA-MB-231 [2] and with T47D [3] was “no change in cell viability” in each case. The “resistance to carboplatin when chemotherapy was added with AMD3100” value in the series on MDA-MB-231 [2] (MDA-MB-231 + MSCs 12 days, AMD3100 48 hours then carboplatin with re-added AMD3100 72 hours) is listed as “resistance was compromised”; in the series on T47D [3] (T47D + MSCs 12 days, AMD3100 48 hours then carboplatin with re-added AMD3100 72 hours), “resistance was compromised”. Moreover, the “viability after AMD3100 pre-treatment and chemotherapy without the antagonist” value with MDA-MB-231 [2] (setting [9]) is “effect on cell proliferation and viability was lost”; in the series with T47D [3] (setting [10]), “effect on cell proliferation and viability was lost”. Besides, the “effect on primary and metastatic breast cancer” value in series [5] was “can decrease primary and metastatic breast cancer in mice”. In addition, the “overall survival for experimental lung metastases” value in [5] is “no effect on the overall survival”. Also, the “proliferation in 12-day (D12) co-culture with MSCs” value is given as “significantly (p<0.05) reversed” in the series on T47D [6] (T47D + MSCs 12 days, optimal AMD3100 during the last 48 hours, effect on the MSC-mediated decrease) and “significantly (p<0.05) reversed” with MDA-MB-231 [8] (MDA-MB-231 + MSCs 12 days, optimal AMD3100 during the last 48 hours, effect on the MSC-mediated decrease). In addition, the “AMD3100 concentration of sensitivity (optimal dose for proliferation)” value amounted to 100 ng/mL in the series with T47D [6] (T47D + MSCs, 48-hour culture) and 10 ng/mL in the series with MDA-MB-231 [8] (MDA-MB-231 + MSCs, 48-hour culture). Further, the “proliferation of breast cancer cells in co-cultures with MSCs” value in the series with T47D [6] (T47D + MSCs, 48-hour culture, AMD3100 10 and 100 ng/ml, compared to breast cancer cells alone (FIG. 1E)) is listed as “promoted the proliferation”; in the series with MDA-MB-231 [8] (MDA-MB-231 + MSCs, 48-hour culture, AMD3100 10 and 100 ng/ml, compared to breast cancer cells alone (FIG. 1D)), “promoted the proliferation”. Moreover, the “cell proliferation after AMD3100 pre-treatment and chemotherapy without the antagonist” value was “effect on cell proliferation and viability was lost” in the series on T47D [6] (setting [10]); “effect on cell proliferation and viability was lost” in the series with MDA-MB-231 [8] (setting [9]). Further, the “proliferation of breast cancer cells alone” value with T47D [6] (T47D cultured alone, 48 hours, AMD3100) is listed as “decrease in cell proliferation”; with MDA-MB-231 [8] (MDA-MB-231 cultured alone, 48 hours, AMD3100) it was “decrease in cell proliferation”. For the same compound, in the series with T47D [6] (T47D, closed circles FIG. 1E, 10 and 100 ng/ml), the “relation of proliferation to AMD3100 concentration” value is on record as “inversely related to AMD3100 concentration”. For the same compound, the “time at which the increase in proliferation began” value was “at a later time point” with T47D [6] (T47D, optimal AMD3100 dose, relative to MDA-MB-231) and 1 h in the series on MDA-MB-231 [8] (MDA-MB-231, optimal AMD3100 dose). Further, the “optimum time for AMD3100-mediated proliferation” value with T47D [6] (T47D, optimal AMD3100 dose, various times (FIG. 1G)) is 48 h; in the series with MDA-MB-231 [8] (MDA-MB-231, optimal AMD3100 dose, various times (FIG. 1F)) it was 48 h. In the series with breast cancer cells, the “cycling cells (S/G2/M phase)” value was “significant (p<0.05) increase in cycling cells”. Further, the caspase-3 immunoreactivity result with caspase-3 is “increased caspase-3 immunoreactivity”. Besides, the “mean tumor volume by D12” value in the series on MDA-MB-231 [1] (group C: breast cancer cells + MSCs, tumors injected with AMD3100, carboplatin at days 8 and 10) is recorded as “significant reduction in tumor volume; also recorded: significantly (p<0.05) reversed the chemoprotective effect of MSCs”. In series [7], the “mobilization of hematopoietic stem cells” value was “can mobilize hematopoietic stem cells”. The “IL-1α in transwell media, fold greater” value with IL-1α is recorded as 3 fold. Further, on CXCR7, the “action on CXCR7” value is on record as “allosteric agonist of CXCR7”.
